In patent publication US4180669A, “2-(N-phenethyl-4-piperidino)-5-pentyl resorcinol” (Abbott Laboratories, priority 1978, dated 1979):
Where a name gives a salt, the structure may show the parent alone. Read-outs that look alike come from different tables or passages of the source.

Key:
[1] = test system: pentagastrin stimulated fistula dog; experiment: Antisecretory activity in the pentagastrin stimulated fistula dog; format: in vivo, female beagle dogs; conditions: dose 10 mg/kg; pentagastrin 10 μg/kg s.c.; 2 hours
Description: In addition to the test described in Example XXXVI, some of the present compounds were tested in dogs.
In this test, female beagle dogs weighing 5.5-7.5 kg. were surgically provided with gastric fistulas at the ventral wall of the stomach near the greater curvature and just proximal to the antrum. The animals were allowed to recover for three to four weeks before handling and training were begun, and experiments were started six to eight weeks after surgery. The individually housed dogs were fasted for 20-24 hours before use. Water was allowed ad lib. Treatment selection was determined by a randomized schedule which included control groups given vehicle (0.5% Methocel® solution) only. During the test period each dog was secured in a standing position with one collar around the neck and another around the lower abdomen. Before drug administration, the cannula plug of the gastric fistula was removed and the pH of the gastric juice was checked. Animals with acidic gastric juice (pH 4.0 or less) were replaced with alternate dogs. Then the drug was administered intragastrically […] through a special gastric cannula instillation plug, 30 minutes prior to subcutaneous administration of a gastric stimulant (pentagastrin, 10 μg/kg).
For each dog, collection of gastric juice was begun immediately after administration of the gastric stimulant and continued for two hours. The volumes of collected gastric juices were measured. The acid concentration and pepsin activity were determined for all samples by automated procedures. For the dog data, as recorded in Table 2, below, group means for volume (ml), acid concentration (acidity, mEq/l), pepsin concentration (mg/ml), acid output (mEq/2 hr), and pepsin output (mg/2 hr) were compared with the respective control means using Student's t-test. The results were also expressed as percent inhibition of the respective individual mean control values.
Group means for volume, acid and pepsin concentrations, acid and pepsin outputs were compared for statistically significant differences from control means by Student's t-test.

[2] = test system: pylorous ligated rats; experiment: Antisecretory activity in the pylorous ligated rat model; format: in vivo, male Sprague-Dawley rats; conditions: for inhibition in vivo at 12.5 mg/kg / inhibition in vivo at 25 mg/kg / inhibition in vivo at 50 mg/kg / inhibition in vivo at 100 mg/kg: Rattus norvegicus, 4 h; for inhibition in vivo at 12.5 mg/kg: oral dose 12.5 mg/kg
Description: To determine the antisecretory activity of the present compounds, the compounds were tested for such activity in pylorous ligated rats. In this test, male Sprague-Dawley rats weighing 170-190 g. were fasted for 24 hours. Water was allowed ad libitum. All groups were comprised of six rats. […] Water was withheld after drug administration. Ligation of the pyrloric sphincter was performed under ether anesthesia, and four hours after ligation the animals were sacrificed with CO2. The stomach was dissected out and the contents were expelled into a graduated centrifuge tube. The samples were centrifuged and the volume, less debris, was measured. Sample aliquots were titrated with 0.05 N NaOH to determine acid concentration. Pepsin activity was determined on an auto analyzer using hemoglobin as the substrate by the method of Anson. Group means for volume, acid and pepsin concentrations, and pepsin outputs were compared for statistically significant differences from control means by Student's t-test.

[3] = read-out: Percent inhibition of acid output
[4] = read-out: Percent inhibition of acidity
[5] = read-out: Percent inhibition of volume
[6] = oral dose 25 mg/kg, read-out: Percent inhibition of acid output
[7] = oral dose 25 mg/kg, read-out: Percent inhibition of acidity
[8] = oral dose 25 mg/kg, read-out: Percent inhibition of volume
[9] = oral dose 50 mg/kg, negative sign means stimulated, read-out: Percent inhibition of pepsin
[10] = oral dose 50 mg/kg, negative sign means stimulated, read-out: Percent inhibition of pepsin output
[11] = oral dose 50 mg/kg, read-out: Percent inhibition of acid output
[12] = oral dose 50 mg/kg, read-out: Percent inhibition of acidity
[13] = oral dose 50 mg/kg, read-out: Percent inhibition of volume
[14] = oral dose 100 mg/kg, read-out: Percent inhibition of acid output
[15] = oral dose 100 mg/kg, read-out: Percent inhibition of acidity
[16] = oral dose 100 mg/kg, read-out: Percent inhibition of volume
[17] = oral dose 50 mg/kg, negative sign means stimulated

| Molecule | inhibition in vivo at 50 mg/kg [2, 9] | inhibition in vivo at 50 mg/kg [2, 10] | inhibition in vivo at 50 mg/kg [2, 11] | inhibition in vivo at 50 mg/kg [2, 12] | inhibition in vivo at 50 mg/kg [2, 13] | other results |
| --- | --- | --- | --- | --- | --- | --- |
| CCCCCC(C)C(C)c1cc(O)c(C2=CCN(Cc3ccccc3)CC2)c(O)c1.Cl (centres unmarked) [Example XIV, 2-(N-Benzyl-1,2,3,6-tetrahydro-4-pyridyl)-5-(1,2-dimethylheptyl) resorcinol hydrochloride] | 12.7% | 52.4% | 57.6% | 24.7% | 48.9% | % Inhibition of acid output [1]: -10.4%; % Inhibition of acidity [1]: 1.2%; % Inhibition of pepsin [1]: -10.0%; % Inhibition of pepsin output [1]: -23.1%; % Inhibition of volume [1]: -12.3%; inhibition in vivo at 12.5 mg/kg [2, 3]: -17.3%; inhibition in vivo at 12.5 mg/kg [2, 4]: -0.5%; inhibition in vivo at 12.5 mg/kg [2, 5]: -5.9%; inhibition in vivo at 25 mg/kg [2, 6]: 12.5%; inhibition in vivo at 25 mg/kg [2, 7]: 9.2%; inhibition in vivo at 25 mg/kg [2, 8]: 4.9%; inhibition in vivo at 100 mg/kg [2, 14]: 79.7%; inhibition in vivo at 100 mg/kg [2, 15]: 31.6%; inhibition in vivo at 100 mg/kg [2, 16]: 72.1% |
| CCCCCC(C)C(C)c1cc(O)c(C2CCNCC2)c(O)c1 (centres unmarked) [Example XVI, 2-(4-Piperidino)-5-(1,2-dimethylheptyl) resorcinol hydrochloride] | 45.1% | 40.3% | 46.6% | 50.7% | -8.6% | % Inhibition of acid output [1]: 20.3%; % Inhibition of acidity [1]: 20.9%; % Inhibition of pepsin [1]: 39.7%; % Inhibition of pepsin output [1]: 39.1%; % Inhibition of volume [1]: -0.2% |
| CCCCCc1cc(O)c(C2=CCN(CCc3ccccc3)CC2)c(O)c1 [Example XIX, 2-(N-Phenethyl-1,2,3,6-tetrahydro-4-pyridyl)-5-pentyl resorcinol hydrochloride] | 6.9% | 31.7% | 27.3% | 4.2% | 25.5% |  |
| CC(C)C(C)c1cc(O)c(C2=CCN(C)CC2)c(O)c1 (centres unmarked) [Example VII, 2-(N-Methyl-1,2,3,6-tetrahydro-4-pyridyl)-5-(1,2-dimethylpropyl) resorcinol hydrochloride] | -24.6% | -9.9% | 15.8% | 7.1% | 9.5% |  |
| CCCCCc1cc(O)c(C2CC3CCC(C2)N3C)c(O)c1 (centres unmarked) [XXIV, 2-(N-Methyl-2,6-ethylidene-4-piperidino)-5-pentyl resorcinol hydrochloride] | 21% | 22.2% | 0.9% | -2.5% | 2.8% |  |
| CCCCCC(C)C(C)c1cc(O)c(C2=CC3CCC(C2)N3C)c(O)c1 (centres unmarked) [Example XXV, 2-(N-Methyl-2,6-ethylidene-1,2,3,6-tetrahydro-4-pyridyl)-5-(1,2-dimethylheptyl) resorcinol hydrochloride] | 1% | 11% | 29.4% | 21.2% | 9.7% |  |
| CCCCCC(C)C(C)c1cc(O)c(C2=CCN(C)CC2)c(OC)c1 (centres unmarked) [Example XXVI, 2-(N-Methyl-1,2,3,6-tetrahydro-4-pyridyl)-3-methoxy-5-(1,2-dimethylheptyl)phenol hydrochloride] | 12.6% | 8.6% | 53.7% | 53.1% | -0.3% |  |
| 2-(N-Propargyl-1,2,3,4-tetrahydro-4-pyridyl)-3-methoxy-5-(1,2-dimethylheptyl)phenol [XXIX] |  |  |  |  |  | Percent inhibition of acid output ([2]; oral dose 25 mg/kg): 7.8%; Percent inhibition of acidity ([2]; oral dose 25 mg/kg): 18.6%; Percent inhibition of volume ([2]; oral dose 25 mg/kg): -13.0%; Percent inhibition of acid output ([2]; oral dose 50 mg/kg): 45.6%; Percent inhibition of acidity ([2]; oral dose 50 mg/kg): 50.6%; Percent inhibition of volume ([2]; oral dose 50 mg/kg): -5.7%; Percent inhibition of pepsin [2, 17]: 21.0%; Percent inhibition of pepsin output [2, 17]: 23.9%; Percent inhibition of acid output ([2]; oral dose 100 mg/kg): 49.5%; Percent inhibition of acidity ([2]; oral dose 100 mg/kg): 58.1%; Percent inhibition of volume ([2]; oral dose 100 mg/kg): -21.8% |
| CCCCCc1cc(O)c(C2CCN(C)CC2)c(O)c1 [XVIII, 2-(N-Methyl-4-piperidino)-5-pentyl resorcinol hydrochloride] | 5.6% | 1.4% | 4.5% | 8.2% | -5.2% |  |
| CC(C)c1cc(O)c(C2=CCNCC2)c(O)c1 [XII, 2-(1,2,3,6-Tetrahydro-4-pyridyl)-5-isopropyl resorcinol hydrochloride] | -3.9% | 12.8% | 16.6% | 1.4% | 15.5% |  |
| CCCCCC(C)C(C)c1cc(O)c(C2CCN(C)CC2)c(O)c1 (centres unmarked) [XVII, 2-(N-Methyl-4-piperidino)-5-(1,2-dimethylheptyl) resorcinol hydrochloride] | 40.5% | 40.6% | 38.5% | 38.1% | 0.3% |  |
| CC(C)c1cc(O)c(C2=CCN(C(C)C)CC2)c(O)c1 [XIII, 2-(N-Isopropyl-1,2,3,6-tetrahydro-4-pyridyl)-5-isopropyl resorcinol hydrochloride] | 7.1% | 36.4% | 37.9% | 9.7% | 32% |  |
| CCCCCC(C)C(C)c1cc(O)c(C2CCN(CCc3ccccc3)CC2)c(O)c1 (centres unmarked) [Example XXII, 2-(N-phenethyl-4-piperidino)-5-(1,2-dimethylheptyl) resorcinol hydrochloride] | -7.1% | 30.9% | 37.6% | 8.5% | 37.3% |  |
| CCCCCC(C)C(C)c1cc(O)c(C2=CCN(C)CC2)c(O)c1 (centres unmarked) [Example X, 2-(N-Methyl-1,2,3,6-tetrahydro-4-pyridyl)-5-(1,2-dimethylheptyl) resorcinol] | 41.5% | 48% | 69.3% | 66.8% | 7.7% | inhibition in vivo at 12.5 mg/kg ([2]; negative sign means stimulated, read-out: Percent inhibition of pepsin): 23.4%; inhibition in vivo at 12.5 mg/kg [2, 3]: 10.8%; inhibition in vivo at 12.5 mg/kg [2, 4]: 13.1%; inhibition in vivo at 12.5 mg/kg ([2]; read-out: Percent inhibition of pepsin output): 22.6%; inhibition in vivo at 12.5 mg/kg [2, 5]: -2.8%; inhibition in vivo at 25 mg/kg ([2]; oral dose 25 mg/kg, negative sign means stimulated, read-out: Percent inhibition of pepsin): 45.1%; inhibition in vivo at 25 mg/kg [2, 6]: 22.9%; inhibition in vivo at 25 mg/kg [2, 7]: 20.9%; inhibition in vivo at 25 mg/kg ([2]; oral dose 25 mg/kg, read-out: Percent inhibition of pepsin output): 46.4%; inhibition in vivo at 25 mg/kg [2, 8]: 1.4%; inhibition in vivo at 100 mg/kg ([2]; oral dose 100 mg/kg, negative sign means stimulated, read-out: Percent inhibition of pepsin): 63%; inhibition in vivo at 100 mg/kg [2, 14]: 69%; inhibition in vivo at 100 mg/kg [2, 15]: 68.4%; inhibition in vivo at 100 mg/kg ([2]; oral dose 100 mg/kg, read-out: Percent inhibition of pepsin output): 63.2%; inhibition in vivo at 100 mg/kg [2, 16]: 1.7% |
